For this assay, the system named is HCV replicon (strain 1b) in HUH-7 cells. Nature of the assay: HCV replicon FRET assay. In kind it is cell-based. Conditions: Hepatitis C virus. The text has this: An HCV replicon whole cell system was established as described by Lohmann V, Korner F, Koch J, Herian U, Theilmann L, Bartenschlager R., Science 285(5424):110-3 (1999). This system enabled us to evaluate the effects of our HCV Protease compounds on HCV RNA replication. Briefly, using the HCV strain 1b sequence described in the Lohmann paper (Assession number: AJ238799), an HCV cDNA was synthesized by Operon Technologies, Inc. (Alameda, Calif.), and the full-length replicon was then assembled in plasmid pGem9zf(+) (Promega, Madison, Wis.) using standard molecular biology techniques. The replicon consists of (i) the HCV 5′ UTR fused to the first 12 amino acids of the capsid protein, (ii) the neomycin phosphotransferase gene (neo), (iii) the IRES from encephalomyocarditis virus (EMCV), and (iv) HCV NS3 to NS5B genes and the HCV 3′ UTR. Plasmid DNAs were linearized with ScaI and RNA transcripts were synthesized in vitro using the T7 MegaScript transcription kit (Aibion, Austin, Tex.) according to manufacturer's directions. In vitro transcripts of the cDNA were transfected into the human hepatoma cell line, HUH-7. […] Resulting cell lines were characterized for positive and negative strand RNA production and protein production over time.
The HCV replicon FRET assay was developed to monitor the inhibitory effects of compounds described in the disclosure on NCV viral replication. HUH-7 cells, constitutively expressing the HCV replicon, were grown in Dulbecco's Modified Eagle Media (DMEM) (Gibco-BRL) containing 10% Fetal calf serum (FCS) (Sigma) and 1 mg/ml G418 (Gibco-BRL). Cells were seeded the night before (1.5×10^4 cells/well) in 96-well tissue-culture sterile plates. Compound and no compound controls were prepared in DMEM containing 4% FCS, 1:100 Penicillin/Streptomysin (Gibco-BRL), 1:100 L-glutamine and 5% DMSO in the dilution plate (0.5% DMSO final concentration in the assay). Compound/DMSO mixes were added to the cells and incubated for 4 days at 37° C. After 4 days, cells were first assessed for cytotoxicity using alamar Blue (Trek Diagnotstic Systems) for a CC50 reading. The toxicity of compound (CC50) was determined by adding 1/10th volume of alamar Blue to the media incubating the cells. After 4 h, the fluorescence signal from each well was read, with an excitation wavelength at 530 nm and an emission wavelength of 580 nm, using the Cytofluor Series 4000 (Perspective Biosystems). Plates were then rinsed thoroughly with Phosphate-Buffered Saline (PBS) (3 times 150 μl).

Like-named read-outs stand apart in the source and are kept apart here.

On to `C=C[C@@H]1C[C@]1(NC(=O)[C@@H]1C[C@@H](OC(=O)N2Cc3cccc(F)c3C2)CN1C(=O)C(Nc1cc(C)cc(C)n1)C(C)C)C(=O)NS(=O)(=O)C1CC1` (single isomer, unassigned) [Compound 2A], for which the EC50 is 14 to 100 nM (Huh-7, HCV replicon, activity range, read-out: EC50 (range or value)) and 69 nM (Huh-7, replicon FRET assay, read-out: EC50 value in the replicon FRET assay).

The values are drawn from US20090285774A1, “Hepatitis C Virus Inhibitors” (Bristol-Myers Squibb Company, priority 2008, published 2009).
